Results reported in the supplement of paper PMC10331698.
± gives the standard deviation of the averaged measurements.

Assays:
Assay in all cases: level (log10 ratio to DMSO vehicle control); higher = higher biomarker level / cell amount than vehicle control
Details in all cases: in DMSO
[1] = compound: O=S(=O)(O)C(F)(F)C(F)(F)C(F)(F)C(F)(F)C(F)(F)C(F)(F)F [Perfluorohexanesulfonic acid]
Procedure: (§1)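 BioMAP Diversity Plus panel of 12 human primary cell co-culture systems (3C, 4H, LPS, SAg, BT, BF4T, BE3C, CASM3C, HDF3CGF, KF3CT, MyoF, Mphg). Compounds were added 1 h before stimulation and left for 24 h (MyoF 48 h; BT 72 h for soluble read-outs or 6 d for IgG). Biomarkers were read by ELISA, cytotoxicity by SRB, PBMC viability and proliferation by Alamar Blue. Each well value was divided by the mean of 8 DMSO control wells on the same plate and log10 transformed; duplicate blinded samples were tested at 4 concentrations.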

Perfluoro-1-iodohexane = compound: FC(F)(F)C(F)(F)C(F)(F)C(F)(F)C(F)(F)C(F)(F)I [Perfluoro-1-iodohexane]
Procedure: as §1

[2] = compound: FC(F)(F)C(F)(F)C(F)(F)C(F)(F)C(F)(F)C(F)(F)C(F)(F)C(F)(F)CCS [2-(Perfluorooctyl)ethanthiol]
Procedure: as §1

Perfluorodecanoic acid = compound: O=C(O)C(F)(F)C(F)(F)C(F)(F)C(F)(F)C(F)(F)C(F)(F)C(F)(F)C(F)(F)C(F)(F)F [Perfluorodecanoic acid]
Procedure: as §1

[3] = compound: C=CC(=O)OCC(F)(F)C(F)(F)C(F)(F)C(F)(F)C(F)(F)C(F)(F)C(F)(F)F [1H,1H-Perfluorooctyl acrylate]
Procedure: as §1

[4] = compound: O=C(O)C(F)(F)C(F)(F)OC(F)(F)F [Perfluoro-3-methoxypropanoic acid]
Procedure: as §1

[5] = compound: O=C(O)C(F)(F)C(F)(F)C(F)(F)OC(F)(C(F)(F)F)C(F)(F)F [Perfluoro-4-isopropoxybutanoic acid]
Procedure: as §1

| Test System | level (log10) ([1]; 6700 nM) | level (log10) ([1]; 20000 nM) | level (log10) ([1]; 60000 nM) | level (log10) (Perfluoro-1-iodohexane; 6700 nM) | level (log10) (Perfluoro-1-iodohexane; 20000 nM) | level (log10) (Perfluoro-1-iodohexane; 60000 nM) | level (log10) ([2]; 6700 nM) | level (log10) ([2]; 20000 nM) | level (log10) (Perfluorodecanoic acid; 6700 nM) | level (log10) (Perfluorodecanoic acid; 20000 nM) | level (log10) ([3]; 6700 nM) | level (log10) ([3]; 20000 nM) | level (log10) ([3]; 60000 nM) | level (log10) ([4]; 6700 nM) | level (log10) ([4]; 20000 nM) | level (log10) ([4]; 60000 nM) | level (log10) ([5]; 6700 nM) | level (log10) ([5]; 20000 nM) | level (log10) ([5]; 60000 nM) |
| --- | --- | --- | --- | --- | --- | --- | --- | --- | --- | --- | --- | --- | --- | --- | --- | --- | --- | --- | --- |
| 3C:CCL2/MCP-1 | 0.0055 ± 0.011 | 0.007 ± 0.017 | 0.017 ± 0.031 | -0.0105 ± 0.0021 | -0.006 ± 0.02 | 0.003 ± 0.047 | 0.0045 ± 0.035 | 0.0135 ± 0.0078 | 0.0065 ± 0.013 | -0.004 ± 0.0028 | -0.0085 ± 0.00071 | -0.009 ± 0.023 | 0.017 ± 0.028 | -0.0125 ± 0.0064 | -0.0095 ± 0.00071 | 0.0165 ± 0.0064 | -0.005 ± 0.016 | 0.001 ± 0.0071 | 0.0375 ± 0.018 |
| 3C:CD54/ICAM-1 | -0.002 ± 0.014 | -0.008 ± 0.0042 | 0.005 ± 0.0099 | 0 ± 0.0057 | 0.0025 ± 0.0078 | 0.012 ± 0.0014 | -0.0055 ± 0.012 | 0.0005 ± 0.016 | 0.0105 ± 0.0021 | 0.015 ± 0.0071 | 0.002 ± 0.0014 | 0 ± 0.0099 | 0 ± 0.018 | -0.001 ± 0.021 | -0.034 ± 0.0028 | -0.0055 ± 0.029 | 0.0075 ± 0.016 | -0.0085 ± 0.022 | 0.0285 ± 0.0078 |
| 3C:CD62E/E-Selectin | -0.0075 ± 0.011 | 0.012 ± 0.0042 | 0.0685 ± 0.018 | -0.0025 ± 0.00071 | -0.0165 ± 0.0035 | -0.0025 ± 0.029 | -0.0065 ± 0.03 | -0.0235 ± 0.036 | -0.004 ± 0.0085 | 0.0025 ± 0.019 | -0.001 ± 0.0071 | -0.006 ± 0.0099 | 0.0035 ± 0.013 | 0.0015 ± 0.016 | -0.0155 ± 0.016 | 0.0005 ± 0.0078 | -0.007 ± 0.023 | -0.015 ± 0.03 | 0.023 ± 0.0099 |
| 3C:CD106/VCAM-1 | -0.0085 ± 0.026 | -0.029 ± 0.0042 | -0.014 ± 0.025 | 0.003 ± 0.024 | 0.0075 ± 0.018 | 0 ± 0.047 | -0.016 ± 0.027 | -0.0105 ± 0.036 | -0.0005 ± 0.012 | -0.001 ± 0.021 | -0.0215 ± 0.023 | -0.0245 ± 0.021 | -0.012 ± 0.0028 | -0.0015 ± 0.0064 | -0.009 ± 0.024 | 0.0015 ± 0.018 | 0.0135 ± 0.00071 | 0.006 ± 0.011 | 0.015 ± 0.02 |
| 3C:CD141/Thrombomodulin | -0.008 ± 0.035 | -0.015 ± 0.023 | -0.004 ± 0.0028 | -0.025 ± 0.013 | -0.023 ± 0.014 | -0.0015 ± 0.005 | 0.0105 ± 0.0078 | -0.042 ± 0.05 | -0.019 ± 0.025 | -0.0445 ± 0.012 | -0.027 ± 0.017 | -0.023 ± 0.018 | -0.0455 ± 0.021 | 0.0005 ± 0.087 | -0.0245 ± 0.036 | -0.0215 ± 0.023 | -0.019 ± 0.0014 | -0.0365 ± 0.019 | -0.015 ± 0.0028 |
| 3C:CD142/Tissue Factor | 0.014 ± 0.023 | 0.0105 ± 0.025 | 0.0545 ± 0.011 | 0.0025 ± 0.032 | 0.0005 ± 0.013 | 0.0185 ± 0.022 | -0.0345 ± 0.022 | -0.0335 ± 0.015 | -0.013 ± 0.013 | -0.029 ± 0.0042 | 0.001 ± 0.0057 | 0 ± 0.0014 | -0.0165 ± 0.0078 | -0.0125 ± 0.066 | -0.049 ± 0.034 | -0.0095 ± 0.057 | -0.015 ± 0.0085 | -0.0185 ± 0.0035 | -0.002 ± 0.0057 |
| BE3C:Keratin 8/18 | 0.0085 ± 0.0035 | 0.0005 ± 0.0064 | -0.018 ± 0.0085 | -0.007 ± 0.037 | -0.0105 ± 0.0078 | 0.005 ± 0.024 | -0.0025 ± 0.0021 | -0.009 ± 0.0014 | 0.0035 ± 0.029 | -0.337 ± 0.0035 | -0.011 ± 0.023 | -0.0145 ± 0.029 | -0.0045 ± 0.022 | -0.0155 ± 0.0092 | -0.006 ± 0.017 | -0.003 ± 0.024 | -0.0135 ± 0.0021 | -0.024 ± 0.0028 | 0.009 ± 0.013 |
| BE3C:MMP-1 | 0.0075 ± 0.00071 | 0.0375 ± 0.018 | 0.227 ± 0.042 | -0.003 ± 0.0085 | -0.0065 ± 0.011 | 0.043 ± 0.016 | -0.0055 ± 0.022 | -0.032 ± 0.031 | 0.211 ± 0.041 | -0.4875 ± 0.0035 | -0.018 ± 0.016 | -0.0215 ± 0.0035 | 0.006 ± 0.0014 | -0.0025 ± 0.018 | 0.002 ± 0.013 | 0.0155 ± 0.00071 | -0.002 ± 0.017 | 0.004 ± 0.025 | 0.0605 ± 0.054 |
| BE3C:MMP-9 | 0.0095 ± 0.026 | 0.014 ± 0.0071 | 0.0275 ± 0.00071 | 0.0075 ± 0.0092 | 0.013 ± 0.0028 | 0.001 ± 0.023 | -0.0195 ± 0.011 | -0.069 ± 0.018 | 0.008 ± 0.014 | -0.458 ± 0.0028 | -0.0135 ± 0.025 | -0.013 ± 0.024 | -0.022 ± 0.018 | 0.009 ± 0.021 | -0.002 ± 0.028 | 0.0285 ± 0.0078 | 0.0235 ± 0.033 | 0.0185 ± 0.044 | 0.0645 ± 0.067 |
| BE3C:PAI-I | 0.0035 ± 0.00071 | -0.003 ± 0.0085 | 0.001 ± 0.0014 | -0.0245 ± 0.04 | -0.0045 ± 0.025 | 0.006 ± 0.037 | -0.015 ± 0.044 | -0.05 ± 0.011 | -0.0475 ± 0.013 | -0.4 ± 0.047 | -0.0295 ± 0.018 | -0.0285 ± 0.028 | -0.028 ± 0.03 | -0.012 ± 0.0057 | -0.009 ± 0.018 | 0.012 ± 0.0014 | -0.0155 ± 0.028 | 0.002 ± 0.017 | 0.0115 ± 0.032 |
| BE3C:SRB | -0.0035 ± 0.022 | -0.013 ± 0.0085 | -0.017 ± 0.011 | -0.0125 ± 0.005 | 0.001 ± 0.017 | 0 ± 0.013 | 0.0055 ± 0.0092 | 0.0095 ± 0.005 | -0.0245 ± 0.005 | -0.664 ± 0.021 | 0.0005 ± 0.0078 | -0.003 ± 0.0085 | 0.0085 ± 0.015 | -0.001 | -0.004 ± 0.0014 | 0.004 ± 0.018 | -0.0035 ± 0.00071 | -0.0095 ± 0.00071 | 0.001 ± 0.0085 |
| BE3C:tPA | -0.0105 ± 0.0064 | 0.0015 ± 0.0035 | 0.012 ± 0.0014 | -0.008 ± 0.028 | -0.008 ± 0.023 | 0.0125 ± 0.028 | 0.0105 ± 0.0064 | 0.0165 ± 0.016 | 0.0215 ± 0.026 | -0.546 ± 0.0085 | 0.005 ± 0.0028 | 0.0125 ± 0.00071 | 0.0605 ± 0.022 | -0.007 ± 0.04 | -0.0075 ± 0.019 | 0.004 ± 0.0071 | -0.0285 ± 0.018 | -0.0385 ± 0.0035 | -0.0025 ± 0.057 |
| BE3C:uPA | 0.0145 ± 0.016 | -0.0005 ± 0.028 | 0.0115 ± 0.019 | 0.0175 ± 0.015 | -0.0005 ± 0.0035 | 0.001 ± 0.0085 | 0.0045 ± 0.00071 | -0.0085 ± 0.016 | -0.0025 ± 0.011 | -0.38 ± 0.0099 | -0.003 ± 0.0099 | 0.005 ± 0.0099 | 0.0055 ± 0.00071 | -0.004 ± 0.0014 | -0.0025 ± 0.0021 | 0.0005 ± 0.0092 | -0.001 ± 0.0042 | 0.0025 ± 0.012 | 0.0185 ± 0.0064 |
| CASM3C:CCL2/MCP-1 | -0.0215 ± 0.018 | -0.013 ± 0.0085 | 0.0035 ± 0.00071 | 0.006 ± 0.0099 | -0.0085 ± 0.019 | 0.0015 ± 0.049 | 0.008 ± 0.0014 | 0.0155 ± 0.0092 | 0.006 ± 0.02 | 0 ± 0.0042 | -0.0035 ± 0.0078 | -0.0095 ± 0.0035 | -0.004 ± 0.0071 | -0.0175 ± 0.032 | -0.0215 ± 0.03 | 0.017 ± 0.0099 | -0.0255 ± 0.012 | -0.0305 ± 0.005 | 0.027 ± 0.034 |
| CASM3C:CD87/uPAR | 0.007 ± 0.0014 | 0.001 ± 0.0057 | 0.0065 ± 0.012 | 0 ± 0.0085 | -0.0105 ± 0.03 | 0.003 ± 0.021 | -0.0395 ± 0.053 | -0.0205 ± 0.04 | -0.0055 ± 0.005 | 0.016 ± 0.011 | 0.0095 ± 0.028 | 0.0135 ± 0.021 | 0.0235 ± 0.019 | -0.021 ± 0.048 | -0.0235 ± 0.035 | -0.031 ± 0.033 | -0.0225 ± 0.046 | -0.0265 ± 0.052 | 0.003 ± 0.014 |
